Blank lines part the entries; values can stand above or below the molecule they belong to.
Columns and labels:
FR1 = FR1 (Homo sapiens, UniProt P15328); settings: read-out: affinity; cited from earlier work
FR2 = FR2 (Homo sapiens, UniProt P14207); settings: read-out: affinity; cited from earlier work
[1] = test system: BT-549 breast cancer cells; settings: BT-549 cells with amplified centrosomes; cited from earlier work
[2] = molecular target: KIFC1/microtubule (MT) binary complex (Homo sapiens, UniProt Q9BW19); settings: ATP-competitive, MT-noncompetitive; cited from earlier work
Sequence of KIFC1/microtubule (MT) binary complex (Q9BW19 whole entry, species assumed): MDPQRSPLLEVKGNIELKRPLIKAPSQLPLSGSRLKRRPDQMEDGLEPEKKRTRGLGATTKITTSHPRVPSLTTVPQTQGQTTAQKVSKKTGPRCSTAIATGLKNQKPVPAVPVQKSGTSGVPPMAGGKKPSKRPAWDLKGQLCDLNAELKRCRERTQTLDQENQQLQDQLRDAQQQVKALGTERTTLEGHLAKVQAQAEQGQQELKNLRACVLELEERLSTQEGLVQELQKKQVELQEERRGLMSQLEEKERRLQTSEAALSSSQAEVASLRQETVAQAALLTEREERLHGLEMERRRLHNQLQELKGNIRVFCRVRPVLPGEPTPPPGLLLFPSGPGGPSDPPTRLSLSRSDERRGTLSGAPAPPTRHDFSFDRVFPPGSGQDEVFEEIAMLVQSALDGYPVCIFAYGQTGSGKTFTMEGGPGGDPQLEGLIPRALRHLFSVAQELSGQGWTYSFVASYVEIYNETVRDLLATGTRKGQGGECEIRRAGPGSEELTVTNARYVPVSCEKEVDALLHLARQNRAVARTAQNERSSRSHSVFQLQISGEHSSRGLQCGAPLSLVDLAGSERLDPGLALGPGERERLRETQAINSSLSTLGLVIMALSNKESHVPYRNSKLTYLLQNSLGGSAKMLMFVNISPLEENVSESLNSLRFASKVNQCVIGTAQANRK
Sequence of KIFC1/microtubule (MT) binary complex (P68363 whole entry partner, species assumed): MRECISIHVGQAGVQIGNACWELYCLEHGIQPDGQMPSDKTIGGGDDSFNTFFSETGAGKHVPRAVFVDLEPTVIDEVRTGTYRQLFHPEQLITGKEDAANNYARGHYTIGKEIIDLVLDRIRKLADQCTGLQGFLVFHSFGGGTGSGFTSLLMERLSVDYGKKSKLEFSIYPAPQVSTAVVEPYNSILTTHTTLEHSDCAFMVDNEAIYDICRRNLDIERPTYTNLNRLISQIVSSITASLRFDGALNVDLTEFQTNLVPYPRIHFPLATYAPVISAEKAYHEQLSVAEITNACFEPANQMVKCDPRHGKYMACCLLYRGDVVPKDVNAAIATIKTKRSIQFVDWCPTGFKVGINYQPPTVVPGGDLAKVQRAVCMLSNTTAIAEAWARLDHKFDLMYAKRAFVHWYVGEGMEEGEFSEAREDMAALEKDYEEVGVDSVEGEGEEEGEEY
Sequence of KIFC1/microtubule (MT) binary complex (Q9BVA1 whole entry partner, species assumed): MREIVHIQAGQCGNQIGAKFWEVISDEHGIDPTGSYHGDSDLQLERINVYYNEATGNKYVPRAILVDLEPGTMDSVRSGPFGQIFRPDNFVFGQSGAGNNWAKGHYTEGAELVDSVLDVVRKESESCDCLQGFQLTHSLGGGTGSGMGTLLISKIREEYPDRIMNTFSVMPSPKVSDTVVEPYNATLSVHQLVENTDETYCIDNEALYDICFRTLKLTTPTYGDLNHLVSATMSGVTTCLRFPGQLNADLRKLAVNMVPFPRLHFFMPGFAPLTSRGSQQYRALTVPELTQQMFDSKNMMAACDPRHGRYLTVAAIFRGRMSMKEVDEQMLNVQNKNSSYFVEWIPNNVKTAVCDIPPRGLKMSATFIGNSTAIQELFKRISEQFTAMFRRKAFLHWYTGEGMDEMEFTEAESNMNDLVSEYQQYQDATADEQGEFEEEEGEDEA

[3] = test system: prostate cancer xenograft tumors; test: TEM and LC/MS-MS lipidomics of xenograft tumors; assay type: in vivo, mice
Excerpt: FIG. 6. […] Ultra-thin sections were cut on Boeckeler MTx ultramicrotome, counterstained with lead citrate, and examined on a LEO 906e TEM. Mitochondria and accumulated lipid granules are highlighted by red arrows. […] Left panels, scale bar ¼2 […]; right panels, scale bar ¼5 mm. […] Levels of PE (i), PS (ii), PC (iii), and SM (iv) lipids in control and Etn-treated tumors. In the abbreviation of lipid, 1st and 2nd numbers denote the number of carbon atoms and unsaturated bonds present in the lipid, respectively. Lipid amounts were quantified by LC/MS-MS. Values and error bars shown represent mean and SE, respectively.
Lipidomic analyses of tumors from control and Etn-treated groups quantified 402 lipids from various lipid classes such as phosphatidylethanolamine (PE), phosphatidylcholine (PC), phosphatidylserine (PS), lysophospholipids, ceramides, and sphingomyelin (SM). Levels of 21 PE lipids (FIG. 6Bi), and other lipids from the PS (FIG. 6Bii), PC (FIG. […]), and SM (FIG. 6Biv) classes were increased in Etn-treated tumors. Thus, PhosE and phospholipid accumulation downregulates HIF-1α, precipitates a bioenergetics/metabolic crisis, activates p53-mediated signaling and culminates in cell death.

[4] = test system: PC-3, DU145, C42B and RWPE-1 cells; test: MTT cell survival, prostate cancer lines versus normal prostate cells; assay type: cell-based; settings: 0.5 and 1 mg/mL, 48 hours, pH 7.4
Protocol: (§1) PhosE was ineffective in inhibiting proliferation and colony formation of these cell lines up to 100 mg/ml (data not shown).

cultured cells = test: Glucose and glutamine content of cultured cells; assay type: cell-based; settings: versus control
Protocol: (§2) FIG. 5. (A) Immunoblots of control and Etn-treated cell lysates for HIF1-α. […] Intracellular glucose (Ci) and glutamine (Cii) levels in control and Etn-treated tumors. (D) Effect of choline kinase inhibition on intracellular levels of glucose (Di) and glutamine (Dii) in Etn-treated cells.
(§3) It was hypothesized that PhosE accumulation alters HIF1-a expression/function that impairs glucose/glutamine metabolism leading to metabolic stress, which activates p53-induced cell death. […] OCR was measured in control and Etn-treated cells, and evaluated the glucose and glutamine content in (a) cultured cells and (b) tumors from control and Etn-treated mice. […] Inhibition of CK abrogated the Etn-mediated decrease in cellular glucose and glutamine content (FIGS. 5Di, ii).

PC-3 cells [5] = test: Oxygen consumption rate in PC-3 cells; assay type: cell-based, human
Protocol: as §2, §3

PC-3 cells [6] = test: Intracellular Etn and PhosE levels in treated PC-3 cells; assay type: cell-based, human; settings: PC-3 cells treated with Etn or PhosE
Excerpt: (§4) FIG. 2. […] (B) Effect of choline kinase inhibition on proliferation of PC-3 cells. (C) Intracellular PhosE level upon Etn treatment.

[7] = test system: prostate cancer xenograft (PC-3-luc tumors); test: Prostate cancer xenograft model, oral treatment; assay type: in vivo, mice
Excerpt: FIG. 3. (Ai) Representative bioluminescent images of one animal per group indicating progression of tumor growth over 4 weeks in control and Etn-treated mice. (Aii) Tumor growth monitored (by vernier calipers) over a period of 4 weeks. (Aiii) Weight of tumors from control and Etn-treated mice.
The in vivo efficacy of this formulation was first examined (FIG. 3A). There was an ˜67% reduction in tumor volume (FIG. 3Aii) and ˜55% reduction in tumor weight (FIG. 3Aiii) after 4 weeks of treatment.

HIF1-α = HIF1-α immunoblot of treated cell lysates; assay type: cell-based; settings: Etn-treated cells
Protocol: as §2, §3

PC-3 cells [8] = test: Immunoblots of cell cycle and apoptosis markers in PC-3 cell lysates; assay type: cell-based, human
Excerpt: (§5) FIG. 4. (A) Immunoblots of control and Etn-treated cell lysates for pRb, cdk4, cdk2, p21, c-PARP, Bim, Bcl-2 and β actin. […] (C) Immunoblots of control and Etn-treated tumors lysates for p53, p21, Bax, pBcl-2, c-PARP, Bim, Bid and β actin. (D) Micrographs showing IHC staining of Ki67 and c-PARP in control and Etn-treated prostate cancer xenografts.

CYP = test: CYP-related drug-drug interaction liability; assay type: in vitro ADME
Excerpt: (§6) ADM E and pharmacological properties of orally-delivered PhosE and Etn [both phosphatidylethanolamine (PE) lipid precursors] were first compared. […] Our mechanistic studies identified CK overexpression—a hallmark of metabolic reprogramming in multiple cancer types—in prostate tumor cells compared to adjacent normal. […] It was hypothesize that an Etn-based formulation can be developed into a safe, selective, pharmacodynamically- and pharmacokinetically-favorable, IND entity that singly or synergistically with the ICI Nivolumab, provides a novel therapeutic option for chemo-resistant EOCs/OCCC.

PC-3 cells [9] = test: Annexin V flow cytometry, PC-3 cells; assay type: cell-based, human
[10] = test system: prostate cancer xenografts; test: Immunoblots and IHC of xenograft tumors; assay type: in vivo, mice
Excerpt: as §5

[11] = GI tract stability, Etn compared with PhosE; assay type: in vitro ADME; settings: compared to PhosE
Excerpt: as §6

PC-3 cells [12] = test: MTT cell survival/proliferation assay, PC-3 cells; assay type: cell-based, human; settings: 48 hours, pH 7.4, compared with PhosE
Protocol: as §1

PC-3 cells [13] = test: PC-3 survival on Etn treatment with or without choline kinase inhibitor; assay type: cell-based, human; settings: with CK inhibition
Excerpt: as §4

[14] = test system: MDA-MB-468, OVCAR-3, HCT116 and CFPAC cells; test: MTT dose-response on cancer cell lines from diverse tissues; assay type: cell-based
Protocol: as §1

PC-3 cells [15] = test: Clonogenic survival assay, PC-3 cells; assay type: cell-based, human; settings: 2 mg/mL, pH 7.4, PC-3 cells
Protocol: as §1

[16] = test system: prostate cancer xenograft tumors; test: Glucose and glutamine content of tumors; assay type: in vivo, mice; settings: versus control
Protocol: as §2, §3

[17] = 40 mg/kg Etn, pH=5.0, oral, after 4 weeks

Sequence of FR2 (P14207 17-230): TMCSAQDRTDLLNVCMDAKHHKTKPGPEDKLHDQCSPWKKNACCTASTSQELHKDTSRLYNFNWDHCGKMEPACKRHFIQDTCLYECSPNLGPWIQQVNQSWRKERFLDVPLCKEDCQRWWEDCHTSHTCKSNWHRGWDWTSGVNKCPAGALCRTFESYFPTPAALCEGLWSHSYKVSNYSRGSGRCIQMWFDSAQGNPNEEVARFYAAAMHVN
Sequence of FR1 (P15328 25-234): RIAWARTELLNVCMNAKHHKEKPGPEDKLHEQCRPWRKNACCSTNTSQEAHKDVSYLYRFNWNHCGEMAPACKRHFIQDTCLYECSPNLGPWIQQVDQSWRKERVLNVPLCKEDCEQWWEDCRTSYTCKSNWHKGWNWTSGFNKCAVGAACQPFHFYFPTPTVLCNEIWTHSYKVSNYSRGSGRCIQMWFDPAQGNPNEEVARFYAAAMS

SMILES: CN1c2c(nc(N)[nH]c2=O)NC[C@@H]1CNc1ccc(C(=O)N[C@@H](CCC(=O)O)C(=O)O)cc1 [6S 5-methyltetrahydrofolate]
- Kd (FR1): 55 nM
- Kd (FR2): 1 nM

SMILES: CCCc1cc(C(=O)N[C@H](Cc2ccc(-c3cccc(OC(F)(F)F)c3)nc2)C(=O)N[C@@H]2CCNC2)sc1C [AZ82]
- centrosome declustering [1]: causes centrosome declustering
- Ki [2]: 43 nM

- GI tract stability [11]: better GI tract stability
SMILES: NCCO [Etn, Monoethanolamine]
- mitochondrial morphology (TEM) ([3]; 40 mg/kg Etn-treated tumors versus controls): elongated mitochondria with highly degraded matrices
- levels of PE, PS, PC and SM lipids ([3]; Etn-treated tumors, LC/MS-MS): increased
- reduction of viability, prostate cancer lines versus normal prostate cells [4]: more effective in reducing viability of prostate cancer lines
- glucose content (cultured cells): significantly reduced
- glutamine content (cultured cells): significantly reduced
- oxygen consumption rate (OCR) (PC-3 cells [5]): decreased OCR
- intracellular PhosE levels (PC-3 cells [6]): more pronounced
- body weight ([7]; 40 mg/kg Etn, oral, over 4 weeks): no change in body weight
- reduction in tumor volume [7, 17]: ~67%
- reduction in tumor weight [7, 17]: ~55%
- intratumoral Etn ([7]; after 4 weeks of Etn treatment): no significant change
- intratumoral PhosE level versus controls ([7]; after 4 weeks of Etn treatment): ~38%
- HIF1-a expression (HIF1-α): strongly downregulated
- apoptosis markers (c-PARP, Bim, Bcl-2) (PC-3 cells [8]): increased levels of proapoptotic markers such as c-PARP and Bim, and decreased antiapoptotic molecules such as Bcl-2
- cell cycle markers (pRb, Cdk4, Cdk2, p21) (PC-3 cells [8]): downregulated pRb, Cdk4, and Cdk2, and upregulated p21
- CYP-related drug-drug interaction liability (CYP): lacked CYP-related drug-drug interaction liability
- annexin-V positive apoptotic cells (PC-3 cells [9]): increased the number of annexin-V positive apoptotic cells
- tumor lysate markers (p53, p21, Bax, pBcl2, c-PARP, Bim, Bid) ([10]; 40 mg/kg Etn): upregulation of p53, p21, Bax, pBcl2, c-PARP, Bim and Bid
- Ki67 and c-PARP expression (IHC) in tumors ([10]; treated versus control tumors): marked decrease in Ki67 expression and increase in c-PARP expression
- inhibition of PC-3 cell proliferation (PC-3 cells [12]): more effective
- antiproliferative activity in presence of CK inhibitor (PC-3 cells [13]): significantly attenuated
- conversion of Etn into PhosE in presence of CK inhibitor (PC-3 cells [13]): reduced conversion of Etn into PhosE
- inhibition of proliferation ([14]; breast, ovary, colon and pancreas cell lines): inhibited proliferation in all the cell lines tested
- decrease in colony numbers (PC-3 cells [15]): ~97%
- glucose content [16]: significantly reduced
- glutamine content [16]: significantly reduced

SMILES: NCCOP(=O)(O)O [PhosE, phosphoethanolamine, reference compound]
- intracellular PhosE levels (PC-3 cells [6]): increased intracellular PhosE levels
- inhibition of tumor growth compared with Etn ([7]; orally delivered formulations): less effective than Etn
- inhibition of proliferation and colony formation ([14]; up to 100 mg/ml, data not shown): ineffective
- decrease in colony numbers (PC-3 cells [15]): ineffective in decreasing colony numbers
